# Experimental data published in US10471005B2, “Low dose pharmaceutical composition” (TORRENT PHARMACEUTICALS LIMITED, priority 2013, dated 2019).
# Values joined by “and” are separate entries in the source; they are usually repeats but may differ in a detail not shown here. Equal entries are not always repeated. Where two headings read alike, the source gives them in different places.
# Columns and labels:
# [1] = test system: ischemic acute kidney injury (AKI); conditions: administered intraperitoneally; cited from earlier work
# HSP70 = HSP70 expression in colon, DSS model of colitis (immunoblotting); assay type: in vivo, female BALB/c mice; conditions: single oral 2.5 mg/kg, six hours after administration, vs placebo
# Method: Effect of oral administration of pharmaceutical composition of compound A on expression of HSP70 was checked in DSS model of colitis.
# 5% DSS (MW-36000-50000) dissolved in drinking water was provided to female BALB/c mice for 5 days. Single dose of compound A was administered to these animals on day 5. Composition comprising compound A was administered at the dose of 2.5 mg/kg, at 10 ml/kg dosing volume by oral route (PO). Placebo group was given similar composition without compound A. Six hours after administration, animals were sacrificed and colon were processed for whole tissue extract preparation. Proteins were separated on SDS-PAGE followed by immunoblotting, employing HSP70 antibody.
# [2] = Pharmacokinetic evaluation in TNBS induced colitis model (plasma levels, LC-MS/MS); assay type: in vivo, male BALB/c mice; conditions: TNBS colitis mice; for Cmax / AUC: male, BALB/c, mouse, 1 mg/kg twice a day, after fifth dose, plasma; for AUC: read-out: AUC0—12
# Method: (§1) Animal with TNBS (2,4,6 trinitrobenzene sulfonic acid) induced colitis is an established model for IBD. Male BALB/c mice were kept for 16 hours fasting and were administered 0.1 ml TNBS solution (containing 1.5 mg of TNBS in 50% ethanol) rectally 4 cm inside the anus with the help of flexible polyethylene catheter under isoflurane anesthesia. Immediately after TNBS administration, mice were held vertically in a head-down position for an additional 45-60 sec to ensure retention and distribution of TNBS solution within the colon of animal. (Fiorucci et al, Immunity, 2002; Vol. 17; 769-780)
# Pharmaceutical composition comprising compound A was administered to mice with TNBS induced colitis (as developed according to example 3) at the dose of 1 mg/kg of compound A twice a day, at 10 ml/kg dosing volume by intraperitoneal route and peroral route. Dosing was initiated a day prior to induction (day −1) of TNBS colitis. Blood samples of treated animals were collected before administration of fifth dose (0 min) and at various time points after fifth dose administration. Blood samples were centrifuged within one hour of collection at 4000 rpm for 10 min at 4° C. and plasma was separated. These plasma samples were analyzed for compound A levels using LC-MS/MS method. Pharmacokinetic parameters of the compound A were calculated by non-compartmental analysis method using Phoenix WinNolin version 6.2.
# [3] = Excretion of compound A in feces, DSS induced colitis model; assay type: in vivo, female BALB/c mice; conditions: for dose excreted: female, BALB/c, mouse, feces, po
# Method: 5% DSS (MW-36000-50000) dissolved in drinking water was provided to female BALB/c mice throughout the study duration of 9 days. Single administration of pharmaceutical composition comprising compound A at the dose of 1 mg/kg of compound A, at 10 ml/kg dosing volume was performed orally on day 5. Feces were collected for 96 hours post administration of the composition. Feces collected was analyzed for compound A levels using LC-MS/MS method.
# DSS induced colitis = test: Effectiveness in DSS induced colitis model; assay type: in vivo, female BALB/c mice; conditions: 1 and 2.5 mg/kg bid oral, day 5 to day 14, vs placebo (5% DSS)
# Method: 5% DSS (MW-36000-50000) dissolved in drinking water was provided to female BALB/c mice for 11 days (Gunther et al, The Journal of Pharmacology and Experimental Therapeutics, 1999; Vol. 292, No. 1; 22-30) followed by DSS free period till day 14. Pharmaceutical composition comprising compound A was administered to these animals from day 5 to day 14 at the dose of 1 and 2.5 mg/kg of compound A twice a day, at 10 ml/kg dosing volume by oral route (PO). Placebo group was given similar composition without compound A. Placebo (composition without compound A) was also administered to healthy animals, which were given only drinking water and represented as placebo (water). Treatment related attenuation in body weight loss, improved disease activity index (DAI, a composite score ranging from 0 to maximum 12 considering the loss in body weight, fecal consistency and presence or absence of occult blood in feces) and colon histopathology (Score) were established in 10 days treated animals (from day 5 to day 14) to check efficacy of compound A. Body weights were monitored daily, DAI was captured every alternate day whereas histopathological evaluation of colonic damage was performed in formalin fixed colon tissue after study completion, similar to example 5. (*p<0.05 vs placebo (5% DSS)) and FIG. 4.
# interleukin (IL)-10 = test: Inflammatory marker mRNA expression in colon, DSS model: IL-10; assay type: in vivo, female BALB/c mice; conditions: 2.5 mg/kg bid oral day 5 to day 14, relative to placebo
# Method: (§2) Effect of oral administration of pharmaceutical composition of compound A on expression of interleukin (IL)-10, TNF-α, and interferon (INF)-γ mRNA was assessed in DSS model of colitis.
# (§3) Pharmaceutical composition comprising compound A was administered 2.5 mg/kg twice a day from day 5 to day 14 to DSS induced colitis mice (as developed according to example 7) by oral route (PO). Animals were sacrificed on day 14 and colon were processed for whole tissue extract preparation. Expression of interleukin (IL)-10, TNF-α, and interferon (INF)-γ mRNA along with expression of 18S rRNA was monitored employing gene specific primer and probes (Applied Biosystems, Foster City, Calif., USA) by quantitative real-time polymerase chain reaction on ABI 7900 HT (Applied Biosystems, Foster City, Calif., USA). mRNA expression was normalized relative to the expression of 18S rRNA. Placebo group was given similar composition without compound A. The results, as given in FIG. 7, were expressed as fold induction relative to placebo (composition without compound A).
# TNBS induced colitis = test: Effectiveness in TNBS induced colitis model; assay type: in vivo, male BALB/c mice
# Method: as §1
# Pharmaceutical composition comprising compound A was administered orally to mice with TNBS induced colitis (as developed according to example 3) at the dose of 1 mg/kg of compound A twice a day, at 10 ml/kg dosing volume. Dosing was initiated a day prior to induction (day −1) of TNBS colitis. Treatment related attenuation in body weight loss, improved disease activity index (DAI, a composite score ranging from 0 to maximum 12 considering the loss in body weight, fecal consistency and presence or absence of occult blood in feces), healthier colon (macroscopy score) and rate of survival were established in the 6 days treated animals (from day −1 to day 4) to check efficacy of compound A. Body weights were monitored daily, DAI was captured on day 2 and day 4 whereas colonic damage (macroscopy score and histopathological score) was scored based on extent of colonic damage. Histopathological evaluation of colonic damage was performed in formalin fixed colon tissue sections, stained with hematoxylin and eosin, at 10× magnification using Leica® DM2500 microscope, after study completion. (*p<0.05 vs placebo/vehicle {composition without compound A}), FIG. 5 and FIG. 8.
# Similar to procedures given above in Example 5, pharmaceutical composition of compound A was administered, twice a day, in mice with TNBS induced colitis through intraperitoneal route and oral route. Treated animals were analyzed for improved disease activity index and healthier colon (macroscopy score).
# TNF-α = test: Inflammatory marker mRNA expression in colon, DSS model: TNF-α; assay type: in vivo, female BALB/c mice; conditions: 2.5 mg/kg bid oral day 5 to day 14, relative to placebo
# Method: as §2, §3
# interferon (INF)-γ = test: Inflammatory marker mRNA expression in colon, DSS model: INF-γ; assay type: in vivo, female BALB/c mice; conditions: 2.5 mg/kg bid oral day 5 to day 14, relative to placebo
# Method: as §2, §3
# [4] = single oral 1 mg/kg, feces collected 96 hours, individual animals, 1 mg/kg
# [5] = 1 mg/kg bid oral, 6 days, vs placebo
smiles,measurement,setting,value
"O=C(O)CNC(=O)c1c(O)nc2sc3c(n2c1=O)CCCCC3 [compound A, [(2-hydroxy-4-oxo-6,7,8,9-tetrahydro-4H,5H-10-thia-1,4a-diaza-benzo[a]azulene-3-carbonyl)-amino]-acetic acid]",Effectiveness in ischemic acute kidney injury (AKI),[1],effective
same,HSP70 protein expression in colon,HSP70,pronounced induction
same,"Systemic concentration, oral compared to IP administration",[2]; equal dose,significantly lower systemic concentration
same,Cmax,"[2]; ip, Intraperitoneal",399 ng/mL
same,AUC,"[2]; ip, Intraperitoneal",256 ng·h/mL
same,Cmax,[2]; Per Oral,13.2 ng/mL
same,AUC,[2]; Per Oral,63.1 ng·h/mL
same,dose excreted,"[3]; 1 mg/kg, single oral 1 mg/kg, feces collected 96 hours, individual animals, read-out: % Recovery in feces",63.9%
same,dose excreted,"[3]; 1 mg/kg, single oral 1 mg/kg, feces collected 96 hours, mean of 5 animals, read-out: Mean % Recovery in feces",58.7%
same,Compound A recovered from feces,"[3]; oral composition, diseased animals",more than 50%
same,% Recovery in feces,[3]; [4],62.35% and 52.66% and 50.88% and 63.60%
same,Total amount of compound A in feces,[3]; [4],15.34 µg and 13.71 µg and 12.63 µg and 12.71 µg and 12.08 µg
same,Disease activity index (DAI),DSS induced colitis,improving the disease activity index
same,Extent of colon damage (colitis score),DSS induced colitis,attenuating extent of colon damage
same,Rate of weight loss,DSS induced colitis,reducing the rate of weight loss
same,Tissue architecture (colon histopathology),DSS induced colitis,preserving tissue architecture
same,IL-10 mRNA expression in colon,interleukin (IL)-10,elevation
same,Disease activity index (DAI),TNBS induced colitis; [5],improving the disease activity index
same,"Extent of colon damage (macroscopy, histopathology)",TNBS induced colitis; [5],attenuating the extent of colon damage
same,Rate of weight loss,TNBS induced colitis; [5],reducing rate of weight loss
same,Survival rate,TNBS induced colitis; [5],improving survival rate
same,"Therapeutic efficacy (DAI, macroscopy score), oral compared to IP administration","TNBS induced colitis; twice a day, oral even at lower doses",better therapeutic efficacy as compared to IP administration
same,TNFα mRNA expression in colon,TNF-α,reduction
same,INFγ mRNA expression in colon,interferon (INF)-γ,reduction
